For experiment [1], the target named is T1, GBA2 (Homo sapiens, UniProt Q9HCG7).
T1 sequence (Q9HCG7 1-927): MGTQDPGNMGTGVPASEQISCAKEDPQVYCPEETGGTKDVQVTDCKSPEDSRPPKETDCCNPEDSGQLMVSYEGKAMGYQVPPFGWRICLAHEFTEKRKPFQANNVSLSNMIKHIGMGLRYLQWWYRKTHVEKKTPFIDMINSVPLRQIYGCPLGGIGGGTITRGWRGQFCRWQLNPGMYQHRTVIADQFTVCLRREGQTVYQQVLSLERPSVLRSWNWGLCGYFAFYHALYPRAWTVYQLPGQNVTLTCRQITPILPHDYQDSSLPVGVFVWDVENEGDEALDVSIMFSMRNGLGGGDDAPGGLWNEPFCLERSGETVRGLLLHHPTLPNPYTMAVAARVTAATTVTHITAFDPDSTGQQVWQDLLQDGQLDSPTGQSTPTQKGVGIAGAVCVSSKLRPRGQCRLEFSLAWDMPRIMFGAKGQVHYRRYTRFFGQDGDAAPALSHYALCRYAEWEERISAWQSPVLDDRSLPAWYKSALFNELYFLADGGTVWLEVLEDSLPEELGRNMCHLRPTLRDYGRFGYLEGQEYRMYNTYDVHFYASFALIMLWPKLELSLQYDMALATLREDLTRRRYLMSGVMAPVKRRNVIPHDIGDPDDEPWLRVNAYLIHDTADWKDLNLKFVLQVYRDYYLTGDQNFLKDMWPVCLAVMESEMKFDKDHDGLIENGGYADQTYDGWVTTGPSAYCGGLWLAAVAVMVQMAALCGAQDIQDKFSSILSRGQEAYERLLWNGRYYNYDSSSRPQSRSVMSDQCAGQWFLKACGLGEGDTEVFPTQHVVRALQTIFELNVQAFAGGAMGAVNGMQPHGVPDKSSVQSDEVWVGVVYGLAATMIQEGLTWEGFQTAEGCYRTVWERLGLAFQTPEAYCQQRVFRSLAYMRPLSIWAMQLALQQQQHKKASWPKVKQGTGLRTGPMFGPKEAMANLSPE
Kind of experiment: Binding specificity (selectivity) for GBA2 over other enzymes. Type of experiment: biochemical. The following applies: compared to a suitable reference compound, e.g. NB-DNJ (miglustat) or AMP-DNM. The source says:
In some embodiments, one or more of the compounds according to the invention may specifically bind a GBA2. In alternative embodiments, one or more of the compounds according to the invention may specifically bind the active site of a GBA2. […] In alternative embodiments, one or more of the compounds according to the invention may specifically bind the human non-lysosomal glucosylceramidase (GBA2) over the human lysosomal glucosylceramidase (GCase) and/or the human cytosolic glucosylceramidase (GBA3). In alternative embodiments, one or more of the compounds according to the invention may specifically bind the human non-lysosomal glucosylceramidase (GBA2) over the human glucosylceramide synthase (GCS). In alternative embodiments, one or more of the compounds according to the invention may specifically bind the human non-lysosomal glucosylceramidase (GBA2) over an intestinal alpha-glucosidase, where the intestinal alpha-glucosidase may be a sucrase-isomaltase or a maltase-glucoamylase.

For experiment [2], the target named is T1, GBA2. The experiment can be described thus: Determination of IC50 values for inhibition of GBA2 in cell lysate. Type of experiment: biochemical. Also on record: host or cells: HEK293T (lentiviral transduction, puromycin selection); used as cellular homogenate. A digest of the protocol:
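Homogenate of HEK293T cells stably overexpressing human GBA2 (0.083 mg/mL final), pretreated with 20 μM GCase inhibitor, preincubated 5 min at 37 °C with compound, then reacted 20 min with 250 μM 4-methylumbelliferyl-β-D-glucopyranoside at pH 5.5 (citrate-phosphate, 1% C10E6). Fluorescence read at 365/450 nm after alkaline stop; IC50 from log-inhibitor curve fit.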

Where [3] appears, read: cellular homogenate of HEK293T cells overexpressing human GBA2, 250 μM 4-methylumbelliferone-β-D glucopyranoside, pH 5.5, 37° C., GCase inhibitor present, read-out: GBA2 IC50.

Where two headings read alike, the source gives them in different places.

A word on the IC50: it is the concentration needed to halve the response being measured. With `C[C@@H]1[C@@H](O)[C@H](O)[C@@H](O)CN1C[C@H]1CC[C@@H](C(C)(C)C)CC1` [Example 9, (2R,3R,4R,5S)-1-(((1s,4S)-4-(tert-butyl)cyclohexyl)methyl)-2-methylpiperidine-3,4,5-triol], the “binding specificity (IC50 or Ki of other molecule / GBA2)” value on GBA2 [1] is recorded as “enhanced binding specificity”. Besides, the half-maximal inhibitory concentration (IC50) on GBA2 [2] (setting [3]) is under 100 nM. Taken in the same sequence, the figures for `C[C@@H]1[C@@H](O)[C@H](O)[C@@H](O)CN1C[C@H]1CC[C@@H](C(F)(F)F)CC1` [Example 11, (2R,3R,4R,5S)-2-methyl-1-(((1s,4S)-4-(trifluoromethyl)cyclohexyl)methyl)piperidine-3,4,5-triol] were “enhanced binding specificity” and under 100 nM. In the same order, the values of `C[C@@H]1[C@@H](O)[C@H](O)[C@@H](O)CN1C[C@H]1CC[C@@H](C(C)(C)F)CC1` [Example 13, (2R,3R,4R,5S)-1-(((1s,4S)-4-(2-fluoropropan-2-yl)cyclohexyl)methyl)-2-methylpiperidine-3,4,5-triol] are “enhanced binding specificity” and under 100 nM.

Consider `C[C@@H]1[C@@H](O)[C@H](O)[C@@H](O)CN1C[C@H]1CC[C@@H](C2CC2)CC1` [Example 20, (2R,3R,4R,5S)-1-(((1s,4S)-4-cyclopropylcyclohexyl)methyl)-2-methylpiperidine-3,4,5-triol], for which the “binding specificity (IC50 or Ki of other molecule / GBA2)” value on GBA2 [1] is “enhanced binding specificity”. The IC50 at GBA2 [2] (setting [3]) was under 100 nM. Taken in the same sequence, the figures for `C[C@@H]1[C@@H](O)[C@H](O)[C@@H](O)CN1CC1CCC2(CCC2)CC1` [Example 24, (2R,3R,4R,5S)-2-methyl-1-(spiro[3.5]nonan-7-ylmethyl)piperidine-3,4,5-triol] were “enhanced binding specificity” and under 100 nM. Regarding `CC(C)c1cc(F)c(CCN2C[C@H](O)[C@@H](O)[C@H](O)[C@H]2C)c(F)c1` [Example 51, (2R,3R,4R,5S)-1-(2,6-difluoro-4-isopropylphenethyl)-2-methylpiperidine-3,4,5-triol], the “binding specificity (IC50 or Ki of other molecule / GBA2)” value at GBA2 [1] is reported as “enhanced binding specificity”. Also, the IC50 at GBA2 [2] is under 100 nM.

In the case of `CC(C)c1ccc(F)c(CCN2C[C@H](O)[C@@H](O)[C@H](O)[C@H]2C)c1F` [Example 52, (2R,3R,4R,5S)-1-(2,6-difluoro-3-isopropylphenethyl)-2-methylpiperidine-3,4,5-triol], at GBA2 [1], the “binding specificity (IC50 or Ki of other molecule / GBA2)” value was “enhanced binding specificity”. Further, the IC50 at GBA2 [2] was under 100 nM.

For the compound `C[C@@H]1[C@@H](O)[C@H](O)[C@@H](O)CN1CCc1c(F)cc(C2CC2)cc1F` [Example 53, (2R,3R,4R,5S)-1-(4-cyclopropyl-2,6-difluorophenethyl)-2-methylpiperidine-3,4,5-triol], on GBA2 [1], the “binding specificity (IC50 or Ki of other molecule / GBA2)” value is on record as “enhanced binding specificity”. Besides, the IC50 at GBA2 [2] is under 100 nM. In the case of `C[C@@H]1[C@@H](O)[C@H](O)[C@@H](O)CN1CCc1c(F)cc(C2CCOCC2)cc1F` [Example 54, (2R,3R,4R,5S)-1-(2,6-difluoro-4-(tetrahydro-2H-pyran-4-yl)phenethyl)-2-methylpiperidine-3,4,5-triol], the “binding specificity (IC50 or Ki of other molecule / GBA2)” value on GBA2 [1] is “enhanced binding specificity”. Besides, the concentration for half-maximal inhibition (IC50) at GBA2 [2] (setting [3]) was under 100 nM. With `CCCCOc1cc(F)c(CCN2C[C@H](O)[C@@H](O)[C@H](O)[C@@H]2C)c(F)c1` [Example 158, (2S,3R,4R,5S)-1-(4-butoxy-2,6-difluorophenethyl)-2-methylpiperidine-3,4,5-triol], the 50% inhibitory concentration (IC50) at GBA2 [2] was in the range of 100 to 1000 nM.

In the case of `O[C@H]1[C@H](O)[C@H](CF)N(CCc2ccccc2F)C[C@@H]1O` [Example 159, (2R,3R,4R,5S)-2-(fluoromethyl)-1-(2-fluorophenethyl)piperidine-3,4,5-triol], the IC50 at GBA2 [2] was in the range of 1000 to 25000 nM.

Take `CCCCOc1cc(F)c(CCN2C[C@H](O)[C@@H](O)[C@H](O)[C@@H]2CF)c(F)c1` [Example 160, (2R,3R,4R,5S)-1-(4-butoxy-2,6-difluorophenethyl)-2-(fluoromethyl)piperidine-3,4,5-triol]: at GBA2 [2], the IC50 is 100 to 1000 nM.

For the origin of these results see US12612380B2, “Non-lysosomal glucosylceramidase inhibitors and uses thereof” (ALECTOS THERAPEUTICS INC., priority 2019, dated 2026).
